Data on three compounds can be found in patent US8916717B2, “Dioxaspiroketal derivatives, process for their preparation and uses thereof” (Consiglio Nazionale Delle Ricerche, priority 2006, dated 2014).

One data set has as its target Cδ protein kinase (Homo sapiens, UniProt Q05655). The following applies: Watters et al., 1998; cited from earlier work.
In data set [1] the test system is peripheral blood lymphocytes (PBL) from healthy donors. Nature of the data set: Toxicity on not tumor healthy human cells, supravital propidium iodide method. In kind it is cell-based. The following applies: for % apoptotic / % necrotic / % viable: PBL, 48 hours. The procedure: […] After 24 and 48 hours of culture, treated lymphocytes have been analyzed using supravital propidium iodide method (PI).
IN short this system is based on the use of propidium iodide, a fluorescent marker for the cellular DNA that normally penetrates only into the fixed or permeable made cells. PI supravital method is based on the principle that supravital exposure to propidium (high concentration of propidium for some hours at 37° C.) of not previously permeable made cells identifies in the population apoptotic cells clearly distinguishing them from necrotic or viable ones. Cells labeled with 40 μg/ml of propidium iodide directly in culture plates, are incubated at 37° for 1 hour and 30 minutes and analyzed using the flow cytometer.

The next data set deals with M14 cell line (melanoma). The data set is described as follows: Cell apoptosis and necrosis by flow cytometry analysis. In kind it is cell-based, human. The method, then: (§1) For apoptosis and cellular cycle analysis, control or various concentration MS treated cells have been removed from the culture by means of trypsinization, re-suspended in PBS, washed two times with cold PBS and fixed with 50% of acetone and methanol (1:4) in PBS at 4° C. Fixed cells then were washed in PBS and stained with propidium iodide 50 μg/ml (PI) in the presence of RNase A 100 KU/ml.
Samples have been analyzed using a FACScan cytometer and fluorescence propidium red signals have been registered on linear scale. Cell fluorescence has been analyzed using a FACScan flow cytometer (Becton Dickinson, USA) using a 488 nm emitting argon laser. Data have been analyzed electronically excluding detritus and cell aggregates. In the red fluorescence, that is proportional to the DNA cell content, the apoptotic cells are represented by hypodiploid peak (cells with DNA fractioned content), easy distinguishable from the healthy cell DNA diploid peak. The fraction of the apoptotic cells is calculated integrating the pre-G1 peak. […]
For the necrosis evaluation, an aliquot of not fixed cells (1×10^6) was incubated with 40 μg/ml PI for 1.5 hour at 37° C. The samples, directly in their coloring solution, have been then analyzed using FACScan flow. […] Apoptotic cells have been detected by FSC/PI dot plot as PI^dim peak, meanwhile P^− and PI^bright represent viable and necrotic cells, respectively.
For orientation: In flow cytometry, cells or beads pass a laser one at a time.

The target in another data set is T1, telomerase (Homo sapiens, UniProt O14746).
T1 construct: endogenous in cells; host or cells: MCF-7, H-125 and M14 tumour cells
T1 sequence (O14746 whole entry): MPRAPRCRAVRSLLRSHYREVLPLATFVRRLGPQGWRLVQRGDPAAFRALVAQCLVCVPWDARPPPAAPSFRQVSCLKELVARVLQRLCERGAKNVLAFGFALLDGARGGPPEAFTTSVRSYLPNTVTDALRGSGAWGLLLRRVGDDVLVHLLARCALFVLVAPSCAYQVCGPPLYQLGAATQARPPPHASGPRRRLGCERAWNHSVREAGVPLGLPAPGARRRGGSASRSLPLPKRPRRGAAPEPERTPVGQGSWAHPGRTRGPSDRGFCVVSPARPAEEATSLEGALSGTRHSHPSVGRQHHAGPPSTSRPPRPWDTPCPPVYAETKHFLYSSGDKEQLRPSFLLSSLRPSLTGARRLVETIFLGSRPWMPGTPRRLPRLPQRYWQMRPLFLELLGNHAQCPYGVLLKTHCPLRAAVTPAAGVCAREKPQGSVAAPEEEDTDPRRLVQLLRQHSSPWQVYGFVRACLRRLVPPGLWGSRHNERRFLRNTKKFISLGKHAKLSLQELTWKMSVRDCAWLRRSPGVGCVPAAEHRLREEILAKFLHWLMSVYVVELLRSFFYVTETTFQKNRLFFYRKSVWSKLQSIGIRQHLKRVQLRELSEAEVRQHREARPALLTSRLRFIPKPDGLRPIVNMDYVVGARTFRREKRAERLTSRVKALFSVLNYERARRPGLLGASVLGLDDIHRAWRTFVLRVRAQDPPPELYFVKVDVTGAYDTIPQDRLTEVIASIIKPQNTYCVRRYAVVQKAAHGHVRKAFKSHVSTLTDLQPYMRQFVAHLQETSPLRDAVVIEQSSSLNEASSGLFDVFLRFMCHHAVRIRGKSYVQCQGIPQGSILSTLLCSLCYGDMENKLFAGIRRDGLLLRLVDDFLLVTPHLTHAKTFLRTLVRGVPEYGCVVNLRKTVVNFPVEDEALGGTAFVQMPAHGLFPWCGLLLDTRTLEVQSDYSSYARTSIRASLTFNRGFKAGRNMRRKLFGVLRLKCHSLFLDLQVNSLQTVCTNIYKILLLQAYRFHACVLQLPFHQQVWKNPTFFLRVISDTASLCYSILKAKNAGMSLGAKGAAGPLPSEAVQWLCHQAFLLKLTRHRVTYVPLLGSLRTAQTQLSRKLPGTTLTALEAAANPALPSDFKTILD
The data set is described as follows: Telomerasic activity (TeloTAGGG Telomerase PCR ELISA) in extracts of treated tumor cells. It counts as cell-based. The note with it: 48 hours; for telomerase enzymatic activity: 1.25 μg/ml; for inhibition at 12.5 µg/mL / inhibition at 25 µg/mL: read-out: telomerase inhibition in comparison to control. The procedure: Telomerasic activity was evaluated using TeloTAGGG Telomerase PCR ELISA kit, photometric enzymatic immunoassay from Roche (Mannheim, Germany). At time of the test, frozen pellet was lysed directly in the tests-tube using 80 μl of cold extraction buffer. Telomerase amplification was carried out by PCR (30 cycles, 94° C. 30 sec; 52° C. 30 sec; 72° C. 45 sec). Telomerasic activity was determined on the cell extracts according to the protocol recommended by the supplier. Sample absorbance (OD, optical density) was measured at 450 nm in a multi-well plate reader (SpectraCount, Pakard, Meriden, Conn., USA). In order to evaluate telomerasic activity, MCF-7, H-125 and M14 tumor cells were treated for 48 hours with serial doses of methyl-spirane (from 1.25 μg/ml to 50 μg/ml) as above described. Subsequently, the cells have been detached from culture plates by trypsinization, centrifuged, pelletized, and stored at −80° C. until the use.
As to telomerase, the cells have been exposed in vitro at 1.25, 12.5, 25, 50 μg/ml of methyl-spirane and evaluated for telomerasic activity (TLMA) using ELISA assay, 48 hours after the treatment. […] Particularly, in the FIG. 10, panels A-C, the effects at various concentrations (1.25, 12.5, 25, 50) of methyl-spirane on MCF-7, H-125 and M14 cell, lines after 48 hours of treatment are shown.
In general terms: ELISA stands for enzyme-linked immunosorbent assay.

Data set [2] concerns M14 malignant melanoma cells. Nature of the data set: Cell cycle by flow cytometry analysis (propidium iodide). It counts as cell-based, human. The following applies: M14, starting from 10 μg/ml dose, after 24 hours of treatment. The method, then:
as §1
Samples have been analyzed using a FACScan cytometer and fluorescence propidium red signals have been registered on linear scale. Cell fluorescence has been analyzed using a FACScan flow cytometer (Becton Dickinson, USA) using a 488 nm emitting argon laser. Data have been analyzed electronically excluding detritus and cell aggregates. In the red fluorescence, that is proportional to the DNA cell content, the apoptotic cells are represented by hypodiploid peak (cells with DNA fractioned content), easy distinguishable from the healthy cell DNA diploid peak. The fraction of the apoptotic cells is calculated integrating the pre-G1 peak. This cell fraction is representative for those having a PI decreasing coloration, considered a marker of DNA fragmentation, phenomenon associated to cell death by apoptosis. The analysis of cell cycle distribution after 24, 48 and 72 hours of MS treatment has been carried out using ModFitLT software (Becton Dickinson Immunocytometry Systems).

The next data set concerns MCF-7 cells. The data set is described as follows: Cell proliferation and viability determination (trypan blue dye exclusion cell counts). The following applies: 1.25 μg/ml. In kind it is cell-based, human. The method, then: The study has been carried out using representative tumor cell lines with different histological origin: MCF-7 breast carcinoma (human), M14 (human) and B16 (murine) melanomas, H125 (human) pulmonary carcinoma, HT-29 (human) colon carcinoma, HL-60 (human) promyelocytic leukemia.
All cell lines have been cultured in RPMI-1640 (Hyclone Europe, Cramlington, UK) medium supplemented with 10% of heat inactivated (56° C., 30 minutes) bovine fetal serum (Hyclone Laboratories, Logan, Utah), 2 mM L-glutamine and antibiotics (Life Technologies Ltd., Paisley, Scotland) (complete medium, CM). Cells have been stored at 37° C. in humidified atmosphere with 5% CO2.
Cell suspensions (HL-60) have been harvested and counted. Plastic adherent cells, in semi-confluence condition, have been detached by a short exposure at 0.025% trypsin with 0.01% EDTA and counted.
All used tumor cells have been harvested, suspended in CM and seeded in 24-well plates at 10^5 cell concentration in a final volume of 2 ml/well. For adherent cells a pre-incubation for 18 hours has been carried out in order to promote the adhesion to plastic. […] The cell proliferation, viability and death have been determined by means of cell counts in trypan blue (dye exclusion test) using a hemocytometer.

For data set [3], the system named is 60 haematological and epithelial human cancer cell lines of NCI panel. The note with it: 60 human cancer cell lines, NCI panel (Uckun et al., 2000); cited from earlier work.

Like-named read-outs stand apart in the source and are kept apart here.

Cδ protein kinase, sequence (Q05655 whole entry): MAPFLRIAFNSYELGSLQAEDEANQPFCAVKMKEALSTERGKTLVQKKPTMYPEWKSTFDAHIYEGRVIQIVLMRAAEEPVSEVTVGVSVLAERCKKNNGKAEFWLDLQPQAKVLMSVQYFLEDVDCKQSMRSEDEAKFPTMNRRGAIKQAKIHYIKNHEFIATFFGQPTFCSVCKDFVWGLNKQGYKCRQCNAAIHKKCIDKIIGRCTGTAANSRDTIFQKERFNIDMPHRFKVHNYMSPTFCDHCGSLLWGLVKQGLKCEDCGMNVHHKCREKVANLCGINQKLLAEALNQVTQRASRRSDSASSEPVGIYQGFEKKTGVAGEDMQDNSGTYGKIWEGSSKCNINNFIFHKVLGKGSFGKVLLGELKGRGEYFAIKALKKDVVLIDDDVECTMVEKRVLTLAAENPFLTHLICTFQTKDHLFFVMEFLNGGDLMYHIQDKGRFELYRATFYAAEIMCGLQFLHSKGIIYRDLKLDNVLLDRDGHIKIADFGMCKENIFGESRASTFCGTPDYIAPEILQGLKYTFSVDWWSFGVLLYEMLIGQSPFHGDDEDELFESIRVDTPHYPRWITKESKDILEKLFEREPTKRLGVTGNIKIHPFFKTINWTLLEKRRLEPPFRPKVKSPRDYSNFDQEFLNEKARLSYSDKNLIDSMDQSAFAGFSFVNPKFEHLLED

As for `C/C=C/C(=O)CC1CCC(C)C(CC(=O)NCC(O)C(C)C(=O)NCCCC2OC3(CCC2C)COCC(CCC(C)/C=C(\C)C(C)O)C3)O1` (centres unmarked) [B[…]], at Cδ protein kinase, the “activation of Cδ protein kinase (PKCs isoform)” value is “specific activator”.

A word on the inhibition: it is the share of the control response that was lost under treatment. As for `CC1CCCC2(OC(O)C=CC2=O)O1` (centres unmarked) [methyl-spirane, 1,7-dioxaspiro[5,5]-8-methyl-undecen-3-en-5-oxa-2-ol], the “% apoptotic” value in data set [1] (3.15 μg/ml) was 2.5%; in data set [1] (6.25 μg/ml) it was 6.4%; in data set [1] (12.5 μg/ml) it was 30.1%; in data set [1] (25 μg/ml), 33.1%; in data set [1] (50 μg/ml) it was 21.7%; in data set [1] (100 μg/ml), 15.0%. In addition, the “% necrotic” value in data set [1] (3.15 μg/ml) is reported as 16%; in data set [1] (6.25 μg/ml), 15.6%; in data set [1] (12.5 μg/ml) it was 40.0%; in data set [1] (25 μg/ml), 56.6%; in data set [1] (50 μg/ml), 70.0%; in data set [1] (100 μg/ml), 84.0%. The “% viable” value was determined as 81.5% in data set [1] (3.15 μg/ml); 78% in data set [1] (6.25 μg/ml); 29.7% in data set [1] (12.5 μg/ml); 10.0% in data set [1] (25 μg/ml); 8.2% in data set [1] (50 μg/ml); 1.0% in data set [1] (100 μg/ml). Besides, in data set [1] (low concentrations (for example, 1.25 μg/ml)), the “necrosis with respect to the control on human lymphocytes” value is “no increase of necrosis”. For the same compound, the apoptosis induction result in the data set with M14 cell line (melanoma) (M14, 25 μg/ml, after 24 hours) is “apoptosis is already observed”. Further, in the data set on M14 cell line (melanoma) (M14, concentrations higher than 1.25 μg/ml, after 72 hours of treatment), the “concentration-dependent increase of apoptosis” value was 30-50%. Besides, the telomerase enzymatic activity entry on telomerase (H-125) and on telomerase (MCF-7) was “very scarcely influenced” in each case. Moreover, the inhibition at 12.5 µg/mL at telomerase (12.5 μg/ml, M14) came out at 61%; on telomerase (MCF7, 12.5 μg/ml, MCF-7), 43%; on telomerase (NCI-H125, 12.5 μg/ml, H-125), 50%. Also, the inhibition at 25 µg/mL worked out at 75% at telomerase (25 μg/ml, M14); 64% on telomerase (MCF7, 25 μg/ml, MCF-7); 68% at telomerase (NCI-H125, 25 μg/ml, H-125). For the same compound, at 50 µg/mL the inhibition against telomerase (50 μg/ml, two cell lines not named (of MCF-7, H-125, M14)) was 80%. For the same compound, on telomerase (1.25, 12.5, 25, 50 μg/ml, all the examined cell lines), the “telomerasic activity (TLMA)” value is “concentration-dependent reduction”. Moreover, in data set [2], the “effect on cell cycle (G1 step)” value is reported as “increment of the G1 step”. Further, the “effect on tumour cell growth in vitro” value in the data set on MCF-7 cells was “inhibiting effects”.

Turning to spongistatin 1, the “cytotoxicity IC50” value in data set [3] was “sub-nanomolar”.
